From patent US20050191735A1, “Oxidoreductase” (priority 2003, published 2005)
Where two headings read alike, the source gives them in different places.

Key:
[1] = tested on: L. reuteri oxidoreductase; assay: Solvent stability: enzyme activity after contact with organic solvents; format: biochemical, Lactobacillus reuteri; settings: for Activity 8 h / Activity 24 h: room temperature; for stability with respect to organic solvents: in words
Method: The enzyme stability when making contact with organic solvents was studied by diluting the L. reuteri oxidoreductase 1:400 (in the case of water-miscible organic solvents) with the solvent mixtures indicated and incubating at room temperature. Subsequently, 10 μl of the enzyme solution were used in the standard assay mixture. Here too, the starting value was set to 100% after dilution in the buffer (potassium phosphate buffer 100 mM, pH=7.0, 1 mM MgCl2) and all other values were related thereto.
In the case of the water-immiscible organic solvents, dilution was likewise carried out in potassium phosphate buffer, the same volume of organic solvent was added to the mixture and the mixture incubated at room temperature in a thermal mixer at rpm=170. The activity was measured from the aqueous phase.

[2] = tested on: recombinant Lactobacillus reuteri oxidoreductase; assay: Substrate spectrum in standard measurement mixture; format: biochemical; settings: for NADP-dependent dehydrogenase activity: oxidation of the hydroxy ester
[3] = tested on: L. reuteri oxidoreductase; assay: Preparative conversion, coenzyme regeneration with Thermoanerobium brockii ADH; format: biochemical, Lactobacillus reuteri; settings: 4 ml substrate, 1 000 units oxidoreductase, room temperature, after 24 h
Method: For a preparative approach, a mixture of 4 ml of potassium phosphate buffer 100 mM, pH=7.0, 2 ml of isopropanol, 4 ml of ethyl 2-oxo-4-phenylbutyrate, 0.064 mg of NADP, 1 000 units of L. reuteri oxidoreductase and 10 mg of Thermoanerobium brockii ADH (Fluka, approximately 100 U, based on oxidation of 2-propanol) was incubated at room temperature with constant mixing for 24 h. […] 97% of the product was the corresponding S-alcohol.

[4] = tested on: L. reuteri oxidoreductase; assay: Preparative conversion, coenzyme regeneration with KRED 1004; format: biochemical, Lactobacillus reuteri; settings: 4 ml substrate, 1 000 units oxidoreductase, 1 mg KRED 1004, room temperature, after 2 h
Method: For a preparative approach, a mixture of 4 ml of potassium phosphate buffer 100 mM, pH=7.0, 2 ml of isopropanol, 4 ml of ethyl 2-oxo-4-phenylbutyrate, 0.064 mg of NADP, 1 000 units of L. reuteri oxidoreductase and 1 mg of KRED 1004 (Biocatalytics Inc, Pasadena) was incubated at room temperature with constant mixing for 2 h. […] 98% of the product was the corresponding S-alcohol.

[5] = pH optimum of recombinant L. reuteri oxidoreductase; format: biochemical
Method: Preparation of the following measurement buffers, all of which are 50 mM, contain 1 mM MgCl2 and have different pH values.
Enzyme diluted as required (1:20)
A pH optimum of between 6.5 and 7 was determined for the enzyme of the invention.

[6] = pH stability of recombinant L. reuteri oxidoreductase; format: physicochemical
Method: The dependence of the activity of the enzyme on storage in buffers of different pH was studied for the pH range from 4 to 11. For this purpose, various buffers (50 mM) in the pH range from 4 to 11 were prepared and the enzyme overexpressed in example 4 was diluted therein 1:200 and incubated for 30, 60 and 300 min. All buffers contained 1 mM MgCl2. 10 μl thereof were then used in the normal activity assay. The starting value here is the measurement value obtained immediately after diluting the enzyme in potassium phosphate buffer 50 mM pH=7.0. Said value corresponded under predefined conditions to a change in extinction of 0.70/min and was set to 100% and all subsequent measurement values were related to this value.

[7] = Temperature optimum of recombinant L. reuteri oxidoreductase; format: biochemical
[8] = Temperature stability of recombinant L. reuteri oxidoreductase; format: physicochemical; settings: after only 30 min
Method: The temperature stability for the range from 15° C. to 70° C. was determined in a manner similar to that described under 5.2. […] Here too, the starting value used was the measurement value which is obtained immediately after diluting the enzyme in potassium phosphate buffer 50 mM pH=7.0 and which was set to 100% here, too.

[9] = substrate: CCCC(=O)C(=O)OCC; assay: Determination of Km and vmax; format: biochemical, Lactobacillus reuteri; settings: other: potassium phosphate buffer pH=7.0, enzyme solution 1:300
Method: The enzyme solution used was the 1:300 diluted lysate (600 μl) obtained from 0.1 g of recombinant E. coli cells.

[10] = water-immiscible solvent, same volume as buffer, activity from the aqueous phase
[11] = Oxidation, activity with ethyl 2-oxo-4-phenylbutyrate set to 100%
[12] = reduction with NADPH, activity with ethyl 2-oxo-4-phenylbutyrate set to 100%
[13] = water-miscible solvent mixture or buffer, enzyme 1:400, starting value 100%

For `ClC(Cl)Cl` [Chloroform], the “Activity 8 h” value [1, 10] was 6% and the “Activity 24 h” value [1, 10] was 0%.

In the case of `O=C(O)C[C@H](O)CCl` [S-4-Chloro-3-hydroxy-butyrate], the Relative activity % [2, 11] is reported as 0% and the NADP-dependent dehydrogenase activity [2] is reported as “no NADP-dependent dehydrogenase activity”.

`CCOC(=O)C(=O)c1ccccc1` [Ethyl phenylglyoxylate] gave a Relative activity % [2, 12] of 2%.

Work on `CCOC(=O)CC(=O)CC` [Ethyl 3-oxo-valerate] yielded a Relative activity % [2, 12] of 1.3%.

With `CC(C)O` [10% Isopropanol, Isopropanol] the “Activity 8 h” value [1, 13] was 86% and the “Activity 24 h” value [1, 13] was 85%.

`CCOC(=O)CC(=O)CCl` [Ethyl 4-chloro-acetoacetate] showed a Relative activity % [2, 12] of 16%.

`CCC(=O)C(=O)O` [2-oxobutyric acid] showed a Relative activity % [2, 12] of 0%.

For `CCO` [5% EtOH, EtOH], the “Activity 8 h” value [1, 13] was 64% and the “Activity 24 h” value [1, 13] was 65%.

`CCCCCCCC(=O)c1ccccc1` [Caprylophenone] gave a Relative activity % [2, 12] of 0%.

`CCCC(=O)C(=O)OCC` [Ethyl 2-oxovalerate] showed a Relative activity % [2, 12] of 190%.

With `CCOC(=O)[C@H](C)O` [Ethyl L-lactate] the Relative activity % [2, 11] was 0% and the NADP-dependent dehydrogenase activity [2] was “no NADP-dependent dehydrogenase activity”.

For `CCCCCC(=O)CC` [3-Octanone], the Relative activity % [2, 12] was 4%.

In the case of `C[S+](C)[O-]` [10% DSMO], the “Activity 8 h” value [1, 13] is reported as 80% and the “Activity 24 h” value [1, 13] is reported as 80%.

`COC(=O)CC(C)=O` [Methyl acetoacetate] gave a Relative activity % [2, 12] of 0.3%.

`CC(=O)Cc1ccccc1` [1-Phenyl-2-propanone] showed a Relative activity % [2, 12] of 3%.

For `CC(C)OC(C)C` [Diisopropyl ether], the “Activity 8 h” value [1, 10] was 94% and the “Activity 24 h” value [1, 10] was 77%.

Work on `CCCC(=O)C(=O)O` [2-Oxovaleric acid] yielded a Relative activity % [2, 12] of 0%.

Work on `CCCCCCC(C)=O` [2-Octanone] yielded a Relative activity % [2, 12] of 1%.

Work on `CCOC(=O)CCCCC(=O)CCCl` [Ethyl 8-chloro-6-oxooctanoic acid] yielded a Relative activity % [2, 12] of 190%.

In the case of `CC(C)O` [30% Isopropanol, Isopropanol], the “Activity 8 h” value [1, 13] is reported as 0% and the “Activity 24 h” value [1, 13] is reported as 0%.

For `CC(=O)c1ccccc1` [Acetophenone], the Relative activity % [2, 12] was 0%.

In the case of `CC(C)O` [20% Isopropanol, Isopropanol], the “Activity 8 h” value [1, 13] is reported as 100% and the “Activity 24 h” value [1, 13] is reported as 100%.

With `C[S+](C)[O-]` [20% DSMO] the “Activity 8 h” value [1, 13] was 79% and the “Activity 24 h” value [1, 13] was 80%.

Molecule `O=C(CCl)c1cccc(Cl)c1` [2-Chloro-l-(3-chloro-phenyl)-ethan-1-one] has a Relative activity % [2] of 0%.

With `CCCCCCC` [Heptane] the “Activity 8 h” value [1, 10] was 113% and the “Activity 24 h” value [1, 10] was 100%.

With `CCOCC` [Diethyl ether] the “Activity 8 h” value [1, 10] was 32% and the “Activity 24 h” value [1, 10] was 20%.

In the case of `CC(C)O` [2-Propanol], the Relative activity % [2, 11] is reported as 0%.

With `CCCCOC(C)=O` [Butyl acetate] the “Activity 8 h” value [1, 10] was 74% and the “Activity 24 h” value [1, 10] was 12%.

With `CCO` [10% EtOH, EtOH] the “Activity 8 h” value [1, 13] was 68% and the “Activity 24 h” value [1, 13] was 70%.

`COC(=O)CCCCC(=O)CC(=O)OC` [Dimethyl-3-oxo-1,8-octanedioic acid] showed a Relative activity % [2, 12] of 42%.

With `CCOC(=O)C(=O)CCc1ccccc1` [Ethyl 2-oxo-4-phenyl-butyrate] the Relative activity % [2, 12] was 100%, the “conversion to ethyl 2-hydroxy-4-phenylbutyrate” value [3] was “completely converted” and the “conversion to ethyl 2-hydroxy-4-phenylbutyrate” value [4] was “completely converted”.

In the case of `CCO` [30% EtOH, EtOH], the “Activity 8 h” value [1, 13] is reported as 77% and the “Activity 24 h” value [1, 13] is reported as 75%.

In the case of `CCO` [20% EtOH, EtOH], the “Activity 8 h” value [1, 13] is reported as 83% and the “Activity 24 h” value [1, 13] is reported as 80%.

For `CCCCCC` [Hexane], the “Activity 8 h” value [1, 10] was 115% and the “Activity 24 h” value [1, 10] was 100%.

In the case of `CCOC(=O)C(C)=O` [Ethyl pyruvate], the Relative activity % [2, 12] is reported as 2%.

For R-4-Chloro-3-hydroxy-butyrate, the Relative activity % [2, 11] was 0% and the NADP-dependent dehydrogenase activity [2] was “no NADP-dependent dehydrogenase activity”.

For `CCOC(=O)[C@@H](C)O` [Ethyl D-lactate], the Relative activity % [2, 11] was 0% and the NADP-dependent dehydrogenase activity [2] was “no NADP-dependent dehydrogenase activity”.

With `CC(C)=O` [Acetone] the Relative activity % [2, 12] was 0%.

For `CCOC(=O)[C@H](O)CCc1ccccc1`, the Relative activity % [2, 11] was 0% and the NADP-dependent dehydrogenase activity [2] was “no NADP-dependent dehydrogenase activity”.

`O=C(O)C(=O)Cc1ccccc1` [2-Oxo-3-phenyl-propionic acid] showed a Relative activity % [2, 12] of 0.5%.

For `COC(C)(C)C` [MTBE], the “Activity 8 h” value [1, 10] was 90% and the “Activity 24 h” value [1, 10] was 81%.

For `CCOC(C)=O` [Ethyl acetate], the “Activity 8 h” value [1, 10] was 0% and the “Activity 24 h” value [1, 10] was 0%.

In the case of `C1CCCCC1` [Cyclohexane], the “Activity 8 h” value [1, 10] is reported as 113% and the “Activity 24 h” value [1, 10] is reported as 100%.

With `CC(C)O` [5% Isopropanol, Isopropanol] the “Activity 8 h” value [1, 13] was 77% and the “Activity 24 h” value [1, 13] was 77%.

B1: recombinant L. reuteri oxidoreductase (Limosilactobacillus reuteri subsp. reuteri) (protein)
chain: MKNIMIAGAGVLGSQIAYQTALSGFNVSVYNHHIDTAERRIKALKSDYERDLHLTDKEFQQGLNNIKVITDDVATAVKDADLMIEALPESLELKEQFYEEVSELAPEKTIFASNSSTFIPSQLAPYTDRPEKFLNMHFANQIWKFNVVEIMGTSQTSPEVIEEATKFAREIKMVPVILNKEQHGYILNSLLIPLLASGLSLWAKGVADPAMIDKDWMISTGAPMGPFGILDMVGLRTAAQIERNAYAQTKDESHKEIADKMEQMIQEGHEGKESGQGFYNYPNPAFMDPDFLKH
In the case of B1, the “share of maximum activity” value ([5]; in the pH range from 4.5 to 8) is reported as 80%, the “activity outside the pH range” value ([5]; pH values of below 4.0 and above 8.5) is reported as “rapidly decreasing” and the remaining activity ([6]; pH 4.0, after 5 h) is reported as 50%. For the same molecule, the remaining activity ([6]; pH 9.0, after 5 h) was 40%, the “stability at high pH” value ([6]; pH values above 9.5) was “immediate inactivation” and the “Activity in U/ml of undiluted enzyme” value ([7]; 15 ° C.) was 385 U/ml of undiluted enzyme. For the same molecule, the “Activity in U/ml of undiluted enzyme” value ([7]; 20 ° C.) was 745 U/ml of undiluted enzyme, the “Activity in U/ml of undiluted enzyme” value ([7]; 25 ° C.) was 1090 U/ml of undiluted enzyme and the “Activity in U/ml of undiluted enzyme” value ([7]; 30 ° C.) was 1350 U/ml of undiluted enzyme. The “Activity in U/ml of undiluted enzyme” value ([7]; 35 ° C.) was 1860 U/ml of undiluted enzyme, the “Activity in U/ml of undiluted enzyme” value ([7]; 40 ° C.) was 2500 U/ml of undiluted enzyme and the “Activity in U/ml of undiluted enzyme” value ([7]; 45 ° C.) was 2900 U/ml of undiluted enzyme. The “Activity in U/ml of undiluted enzyme” value ([7]; 50 ° C.) was 3200 U/ml of undiluted enzyme, the “Activity in U/ml of undiluted enzyme” value ([7]; 55 ° C.) was 3800 U/ml of undiluted enzyme and the “Activity in U/ml of undiluted enzyme” value ([7]; 60 ° C.) was 617 U/ml of undiluted enzyme. For the same molecule, the “Activity in U/ml of undiluted enzyme” value ([7]; 65 ° C.) was 180 U/ml of undiluted enzyme, the “Activity in U/ml of undiluted enzyme” value ([7]; 70 ° C.) was 90 U/ml of undiluted enzyme and the “optimal temperature (maximum activity)” value ([7]; standard measurement mixture, 15° C. to 70° C.) was 55 °C. For the same molecule, the “enzyme activity after incubation at 55° C.” value [8] was “no longer detectable”, the “stability with respect to organic solvents” value [1] was “remarkably stable” and the “stability with respect to organic solvents” value ([1]; listed as Lactobacillus reuteri oxidoreductase) was “high stability”. The Km [9] was 180 ± 70 µM.
